Values joined by “and” are separate entries in the source; they are usually repeats but may differ in a detail not shown here. Equal values may be shown once.

The values that follow come from US7728128B2, “Dibenzo[c,h][1,5]naphthyridines and their use as DNA probes” (Institut National de la Sante et de la Recherche Medicate …, priority 2006, dated 2010).

Series [1] deals with plasmid DNA. Nature of the series: absorption of free molecules before and after addition of plasmid DNA. It counts as physicochemical. Details: Absorption maxima free dye / Absorption maxima DNA bound dye: unit not given here. The procedure:
(§1) Plasmid dsDNA was purified using a Qiagen Maxiprep kit and used in the supercoiled form for absorption and fluorescence studies. E. coli total RNA was bought from Ambion, dA/dT and dG/dC homopolymers were purchased from Amersham Biosciences. Calf thymus (CT) high-molecular weight DNA and Hoechst 33258 were obtained from Sigma-Aldrich. Ethidium bromide was purchased from Amresco.
(§2) Spectrometry and fluorimetry were performed using a SpectraMax384 (Molecular Devices) and a Luminescence Spectrometer LS50B (Perkin Elmer). Fluorescence emission of compound I in complex with DNA and RNA was measured in 50 mM Na phosphate buffer, pH 7.2 at room temperature. Before use, total E. coli RNA was heated to 100° C. for 1 min and immediately transferred on ice for 5 min before mixing with compound I solution. All measurements were carried out at room temperature (20-23° C.) in solutions protected from light and incubated for ˜10-15 min after dilution. The units of b/dye and bp/dye are defined as moles of RNA bases or DNA base pairs per mole of dye. Quantum yield was measured using quinine sulphate as standard as described in (Iupac Commission on Photochemistry, EPA Newsletter of November 1986, 21-29) using FLUOROMAX-3 Spex Spectrofluorometer (HORIBA) and UVIKON XL Spectrophotometer (SECOMAM).
(§3) Although compound I also stains mitotic chromosomes (FIG. 1D), theoretically it was possible that it binds specifically to DNA-associated proteins (for example histones) rather than to nucleic acids. To resolve this issue, the absorption and emission spectra of free compound I before and after addition of dsDNA were recorded. […] Molar extinction coefficient (EC) of free compound I at 391 nm was measured at 10,800 cm^−1 M^−1. In the presence of ds plasmid DNA the absorption peaks of compound I at 373 and 391 nm decreased, and a new peak appears with a maximum at 435 nm (FIG. 1E). An overlay of the absorption spectra in complex with dsDNA at different bp per dye ratios gives a single isosbestic point at 398 nm. Free compound I fluoresces around 438 nm (the exact position of the peak depends on the excitation wavelength). […] At the same time, a new peak evolves with a maximum around 484 nm (FIG. 1F). The exact maximum of fluorescence of compound I/DNA complexes varies insignificantly as a function of the dye/bp ratio and/or base pairs composition of the nucleic acids. […] The quantum yield for compound I (excited at 435 nm) at 5 μM in 50 mM Na-phosphate, pH 7.2, was determined to be 2.7% for free dye and 13.8% in admixture with 50 μM CT DNA.
(§4) To get a further insight into how the structural properties of compound I contribute to its binding to DNA, the inventors analysed fourteen structural analogues present in the compound library. Although several of these compounds are fluorescent in vivo, this property went undetected in the initial screen most likely due to the latency period before the appearance of the signal (see below). To evaluate the activity of compound I-like molecules three tests were used: (1) in vivo, the inventors incubated human fibroblasts in the presence of the molecules and scored nuclear fluorescence in the microscope; (2 and 3) in vitro, the inventors looked at the absorption and fluorescence of free molecules before and after addition of plasmid DNA. […] With the exception of compound I and analogues 8 and 12, accurate in vitro measurement of the fluorescence intensities was impossible because the emission peaks for the free molecules were too close to that for the DNA-bound dye. This affected the height of the dye/DNA peaks.

The subject of series [2] is Methanol-fixed primary human fibroblasts. Nature of the series: nuclear fluorescence in fixed cells under continuous illumination. The class given is cell-based. Here is the method: Primary human skin fibroblasts were grown on poly-D-lysine-coated glass coverslips and fixed in cold (−20° C.) anhydrous methanol for 15 min. Samples were re-hydrated in PBS (150 mM NaCl, 20 mM Na-phosphate, pH 7.2), rinsed with 10% PBS (diluted with water) and stained with 120 μM compound I in 10% PBS for 15 min at room temperature in the dark. Samples were mounted, without washing, using the FluorSave™ mounting medium (Calbiochem) or Mowiol and analysed within 3 hours. For image acquisition (FIG. 5B,D) cells were illuminated continuously (open shutter) for 30 min using an Omega filter set XF100-2 (see above). […] Fluorescence of each region at the last time point was taken as 100% and fluorescence intensities at the same region at previous time points (frames) were calculated using Microsoft Excel software.
To quantify this effect, live mouse fibroblasts were incubated in the presence of 5 μM compound I and time-lapse video microscopy was used to film the cells. Nuclear fluorescence develops slowly in the nuclei of cells treated with compound I and illuminated continuously using a standard Alexa488/FITC filter set (475AF40, 535AF45) (FIG. 5A). […] To test this possibility, the inventors stained nuclei of fixed cells with compound I and measured nuclear fluorescence during a continuous 30 min illumination. […]

For a further series, the system named is live mouse fibroblasts. Nature of the series: photoactivation of nuclear fluorescence in live cells (time-lapse video microscopy). It counts as cell-based. As to conditions: 5 μM, continuous illumination, Alexa488/FITC filter. Here is the method: Compound I at 5 μM was added directly into the cell medium 10 min before observation in an inverted microscope Zeiss Axiovert 200M with a 100 W mercury lamp. Time lapse images were acquired using CoolSnap HQ (Photometrics, Inc.) black and white camera driven by the Metamorph software (Universal Imaging). All experiments were carried out using 40× or 63× (FIGS. 1C and D) oil immersion Apochromat Zeiss objectives. To measure the fluorescence intensities, an oval region was drawn inside of each nucleus using Metamorph software and integrated intensities (nuclear surface multiplied by the average pixel value) were logged for each image.
To quantify this effect, live mouse fibroblasts were incubated in the presence of 5 μM compound I and time-lapse video microscopy was used to film the cells. Nuclear fluorescence develops slowly in the nuclei of cells treated with compound I and illuminated continuously using a standard Alexa488/FITC filter set (475AF40, 535AF45) (FIG. 5A). Fluorescence peaked after 8 min of illumination and then started to fade (FIG. 5C), most likely reflecting the “bleaching” of compound I. The photoactivation concerned only the cells in the illuminated field, as nuclei of cells immediately outside of the illuminated field remained imperceptible (non-fluorescent). […]

The test system of a further series is human histone 1 (H1). The series can be described thus: titration of plasmid DNA with dye in absence or presence of histone 1. The class given is biochemical.
The subject of series [3] is plasmid DNA. Nature of the series: fluorescence of free molecules before and after addition of plasmid DNA. Details: Fluorescence maxima free dye / Fluorescence maxima DNA bound dye: unit not given beside the values. The class given is physicochemical. The procedure:
as §1, §2, §3, §4

[4] abbreviates: free molecule, before addition of plasmid DNA.

With `COc1ccc2c(c1)c(C)nc1c3ccc(OC)cc3c(NCCCN(C)C)nc21` [Compound I, N′-(2,8-dimethoxy-12-methyl-dibenzo[c,h][1,5]naphthyridin-6-yl)-N,N-dimethyl-propane-1,3-diamine], the “Absorption maxima DNA bound dye” value in the series with plasmid DNA [1] (after addition of plasmid DNA) stood at 435. Besides, the “isosbestic point of absorption spectra” value in the series on plasmid DNA [1] (complex with dsDNA at different bp per dye ratios) is 398 nm. In addition, the “absorption maxima of free dye” value with plasmid DNA [1] (free compound) was 224 nm and 245 nm and 283 nm and 326 nm and 373 nm and 391 nm. Besides, the “Molar extinction coefficient (EC)” value with plasmid DNA [1] (free dye at 391 nm) is 10,800 cm^−1 M^−1. Further, in the series with plasmid DNA [1] (setting [4]), the “Absorption maxima free dye” value is listed as 394. The “absorption maximum of new peak” value in the series with plasmid DNA [1] (in the presence of ds plasmid DNA) came out at 435 nm. For the same compound, the “average pixel values in a representative nucleus” value in series [2] (plane (1), start of 30 min illumination) is on record as 512; in series [2] (plane (1800), end of 30 min illumination) it was 1434. In addition, the “illumination time to peak/plateau of nuclear fluorescence” value in the series with live mouse fibroblasts came out at 8 min. Further, the “effect of H1 on dye/DNA fluorescence” value in the series with human histone 1 (H1) (1 μM plasmid DNA, 1 μM H1, emission 484 nm, excitation 435 nm) is listed as “H1 significantly affected the fluorescence”. In the series with human histone 1 (H1) (excited at 391 nm), the “effect of H1 on free dye fluorescence” value is listed as “not quenched by H1”. Moreover, the “emission maximum of new peak upon DNA binding” value with plasmid DNA [3] (DNA-bound) is “around 484 nm”. Moreover, in the series with plasmid DNA [3] (DNA-bound), the “hypsochromic shift of the 438 nm emission peak upon DNA binding” value turned out to be 426 nm. Also, the “Fluorescence maxima DNA bound dye” value with plasmid DNA [3] (after addition of plasmid DNA) stood at 484. In the series with plasmid DNA [3] (free compound), the “emission peak of free dye” value is recorded as “around 438 nm”. Moreover, in the series with plasmid DNA [3] (setting [4]), the “Fluorescence maxima free dye” value was found to be 438. For the same compound, the emission maximum in the series on plasmid DNA [3] (plasmid DNA at bp/dye ratio 40) is given as 472 nm.
